Source: ChEMBL document CHEMBL1201862, “PubChem BioAssay data set” (2004)
Active and inactive are the calls of the source.

How the values were obtained:
[1] = HEK-293T cell viability reduction – luminescence, B-cell screen hits, cytotoxicity control for BCR NF-kB inhibitor project, dose response (AID 489021); assay type: functional, cell-based;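 also: HEK-293T cells carrying an NF-kB luciferase reporter; cells exposed to compound for about 14 hours before viability readout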
[2] = biological target: T1, RNA-binding protein pos-1 (Caenorhabditis elegans, UniProt G5EF15); experiment: disruptors of C. elegans POS-1 RNA interaction – biochemical, fluorescence polarization, dose response (AID 1964);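 also: purified POS-1 fused to maltose binding protein made in E. coli; potency of compounds blocking POS-1 binding to fluorescent RNA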
T1 sequence (G5EF15 whole entry): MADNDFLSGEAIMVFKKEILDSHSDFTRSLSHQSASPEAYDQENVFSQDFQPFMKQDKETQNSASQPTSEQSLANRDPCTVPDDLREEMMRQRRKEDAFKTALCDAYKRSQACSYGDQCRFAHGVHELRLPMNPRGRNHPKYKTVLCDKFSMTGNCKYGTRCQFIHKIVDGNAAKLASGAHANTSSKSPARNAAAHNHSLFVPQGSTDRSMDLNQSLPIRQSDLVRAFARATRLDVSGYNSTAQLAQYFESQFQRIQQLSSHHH

[3] = biological target: T2, Zinc finger protein mex-5 (Caenorhabditis elegans, UniProt Q9XUB2); experiment: potency of MEX-5 RNA-binding blockers – biochemical, C. elegans, fluorescence polarization, dose response (AID 1960)
T2 sequence (Q9XUB2 whole entry): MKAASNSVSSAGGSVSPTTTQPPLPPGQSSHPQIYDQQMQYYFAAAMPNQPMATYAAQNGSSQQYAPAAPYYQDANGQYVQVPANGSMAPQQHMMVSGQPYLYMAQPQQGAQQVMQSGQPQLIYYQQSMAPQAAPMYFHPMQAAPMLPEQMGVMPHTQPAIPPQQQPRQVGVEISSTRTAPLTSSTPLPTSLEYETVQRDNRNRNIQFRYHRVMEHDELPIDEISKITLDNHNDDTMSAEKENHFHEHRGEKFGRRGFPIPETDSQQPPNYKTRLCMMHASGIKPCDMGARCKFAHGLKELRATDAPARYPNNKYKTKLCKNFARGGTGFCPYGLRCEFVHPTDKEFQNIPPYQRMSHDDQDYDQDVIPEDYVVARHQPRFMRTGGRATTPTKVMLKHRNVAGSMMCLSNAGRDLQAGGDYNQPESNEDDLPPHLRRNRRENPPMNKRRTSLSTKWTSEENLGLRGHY

Estrogen receptor = biological target: T3, Estrogen receptor (Homo sapiens, UniProt P03372);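 also: potency for inhibiting coactivator peptide recruitment to the receptor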
T3 sequence (P03372 whole entry): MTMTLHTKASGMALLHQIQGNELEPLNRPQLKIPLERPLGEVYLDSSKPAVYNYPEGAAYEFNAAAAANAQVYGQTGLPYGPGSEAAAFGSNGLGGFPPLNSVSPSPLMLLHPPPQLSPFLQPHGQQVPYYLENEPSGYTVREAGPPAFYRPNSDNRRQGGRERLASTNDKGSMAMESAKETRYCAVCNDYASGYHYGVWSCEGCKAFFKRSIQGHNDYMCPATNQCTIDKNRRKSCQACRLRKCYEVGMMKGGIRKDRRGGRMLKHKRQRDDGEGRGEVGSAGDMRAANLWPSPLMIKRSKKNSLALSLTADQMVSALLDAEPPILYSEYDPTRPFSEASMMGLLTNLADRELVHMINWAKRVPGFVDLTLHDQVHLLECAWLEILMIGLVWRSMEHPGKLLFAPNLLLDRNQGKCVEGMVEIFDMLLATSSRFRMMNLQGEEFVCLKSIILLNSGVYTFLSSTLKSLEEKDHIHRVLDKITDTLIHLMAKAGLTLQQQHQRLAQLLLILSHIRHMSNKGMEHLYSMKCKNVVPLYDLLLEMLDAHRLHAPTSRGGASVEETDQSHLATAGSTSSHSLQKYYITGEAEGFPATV

Estrogen receptor beta = Estrogen receptor beta (Homo sapiens, UniProt Q92731); experiment: blockers of SRC-3 recruitment to ERβ – biochemical, ELISA, streptavidin-HRP readout, orthogonal assay, confirmation (AID 1060)
[4] = biological target: Induced myeloid leukemia cell differentiation protein Mcl-1 (Homo sapiens, UniProt Q07820); assay type: functional
Genome polyprotein = Genome polyprotein (dengue virus type 2, UniProt P29990); experiment: flavivirus cap methylation enzyme inhibition – biochemical, confirmation dose response, primary screen (AID 588689); assay type: functional
[5] = biological target: T4, Polyadenylate-binding protein 1 (Homo sapiens, UniProt P11940); experiment: MLLE binding blockers, Cy5 peptide tracer – biochemical, fluorescence polarization, Cy5-PAM2 peptide, secondary, miRNA deadenylation inhibitor project, dose response (AID 602260); assay type: functional; details: read-out: IC50_Mean
[6] = biological target: T4, Polyadenylate-binding protein 1; experiment: MLLE domain peptide-binding blockers, IC50 – biochemical, fluorescence polarization, FITC-PAM2 peptide, dose response (AID 602259); assay type: functional; details: read-out: IC50_Mean
[7] = biological target: Luciferin 4-monooxygenase (Photinus pyralis, UniProt P08659); experiment: Counter Screen for Luciferase-based Assay Positives. [Related pubchem assays: 620, 618, 411 ]
HT-1080 = experiment: HT1080 cell viability loss – fluorescence readout (AID 620); assay type: functional, cell-based; details: Homo sapiens
[8] = biological target: DNA dC->dU-editing enzyme APOBEC-3G (Homo sapiens, UniProt Q9HC16); experiment: Dose Response confirmation of small molecule APOBEC3G DNA Deaminase Inhibitors via a fluorescence-based single-stranded DNA deaminase assay. [Related pubchem assays (depositor defined):AID493012, AID493028]; assay type: functional
Cytochrome P450 3A4 = Cytochrome P450 3A4 (Homo sapiens, UniProt P08684); details: Potency;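 also: confirmatory qHTS run detecting inhibitors and substrates of CYP3A4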
[9] = system: Streptococcus sp. 'group A'; experiment: Streptococcus pyogenes SK(-)GAS viability under kanamycin – luminescence, BacTiterGlo, confirmation, counter-screen for streptokinase expression inhibitor project, dose response (AID 1900); assay type: functional, organism-based
[10] = A Cell Based Secondary Assay To Explore Cytotoxicity of Compounds that Sensitize Mycobacterium Tuberculosis to Beta-Lactam Antibiotics.; assay type: functional
Streptokinase A = biological target: T5, Streptokinase A (Streptococcus pyogenes serotype M1, UniProt P10520); experiment: viability-normalized secreted streptokinase activity reduction – plasminogen activation absorbance, OD405, dose response (AID 1914); assay type: functional, Streptococcus pyogenes M1 GAS;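 also: secreted streptokinase activity via plasminogen activation per viability signal from cell pellet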
T5 sequence (P10520 whole entry): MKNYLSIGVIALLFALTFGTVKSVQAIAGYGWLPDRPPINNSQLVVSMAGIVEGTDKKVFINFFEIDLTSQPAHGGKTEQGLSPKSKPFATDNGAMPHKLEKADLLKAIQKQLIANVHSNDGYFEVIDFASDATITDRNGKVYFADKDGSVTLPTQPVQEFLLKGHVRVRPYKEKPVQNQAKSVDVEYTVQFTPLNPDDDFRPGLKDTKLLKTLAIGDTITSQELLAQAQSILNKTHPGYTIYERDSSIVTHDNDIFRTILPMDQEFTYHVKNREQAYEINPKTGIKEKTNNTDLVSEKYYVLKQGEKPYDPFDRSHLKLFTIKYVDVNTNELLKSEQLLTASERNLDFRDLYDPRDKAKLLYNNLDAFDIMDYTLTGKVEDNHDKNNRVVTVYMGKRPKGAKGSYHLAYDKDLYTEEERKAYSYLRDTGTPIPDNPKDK

Streptococcus = experiment: GAS UMAA2166 growth inhibition – luminescence, BacTiterGlo, counter-screen for streptokinase expression inhibitor project, dose response (AID 1915); assay type: functional, organism-based;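 also: potency for reduction of bacterial viability or growth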
[11] = Trypanosoma cruzi growth suppression in host cells – NIH3T3 host cells, beta-gal luminescence, confirmation (AID 2044); assay type: functional, cell-based;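 also: intracellular parasites grown in NIH/3T3 mouse fibroblasts as host cells; luminescent beta-galactosidase reporter signal from transgenic T. cruzi replicating inside host cells; inhibitors lower the luminescence signal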
[12] = viability of PTEN-deleted HCT116 cells – cell-based, HCT116 PTEN knockout, dose response (AID 1047); assay type: functional;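 also: HCT116 colon tumor cells with PTEN knocked out; cells exposed to compound for 60 hours before readout; potency for loss of cell viability measured by luminescence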
[13] = NIH3T3 cell viability loss – ATP luminescence, mouse fibroblasts, counter-screen, dose response (AID 2010); assay type: functional, cell-based;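 also: cells exposed to compound for about 90 hours before reading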
[14] = viability of HCT116 lacking mutant beta-catenin – cell-based, human colon tumor, dose response (AID 1045); assay type: functional;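 also: HCT116 colon tumor cells with beta catenin knocked out; cells exposed to compound for 60 hours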
Cytochrome P450 1A2 = biological target: T6, Cytochrome P450 1A2 (Homo sapiens, UniProt P05177);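 also: PubChem cytochrome P450 panel assay, CYP1A2 panel member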
T6 sequence (P05177 whole entry): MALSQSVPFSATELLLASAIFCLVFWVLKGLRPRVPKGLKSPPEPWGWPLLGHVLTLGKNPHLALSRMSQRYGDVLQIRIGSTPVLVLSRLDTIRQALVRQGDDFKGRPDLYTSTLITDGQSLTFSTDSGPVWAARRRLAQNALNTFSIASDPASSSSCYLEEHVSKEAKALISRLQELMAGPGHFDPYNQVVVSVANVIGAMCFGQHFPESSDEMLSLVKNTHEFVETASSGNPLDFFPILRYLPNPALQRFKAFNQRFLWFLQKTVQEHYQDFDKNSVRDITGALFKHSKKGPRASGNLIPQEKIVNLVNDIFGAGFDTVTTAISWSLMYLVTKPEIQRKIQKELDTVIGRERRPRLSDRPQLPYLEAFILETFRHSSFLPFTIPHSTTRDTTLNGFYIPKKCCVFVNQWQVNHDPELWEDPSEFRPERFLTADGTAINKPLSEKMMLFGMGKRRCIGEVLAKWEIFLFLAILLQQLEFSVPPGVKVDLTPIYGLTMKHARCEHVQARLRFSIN

Chain of Luciferin 4-monooxygenase (P08659 whole entry): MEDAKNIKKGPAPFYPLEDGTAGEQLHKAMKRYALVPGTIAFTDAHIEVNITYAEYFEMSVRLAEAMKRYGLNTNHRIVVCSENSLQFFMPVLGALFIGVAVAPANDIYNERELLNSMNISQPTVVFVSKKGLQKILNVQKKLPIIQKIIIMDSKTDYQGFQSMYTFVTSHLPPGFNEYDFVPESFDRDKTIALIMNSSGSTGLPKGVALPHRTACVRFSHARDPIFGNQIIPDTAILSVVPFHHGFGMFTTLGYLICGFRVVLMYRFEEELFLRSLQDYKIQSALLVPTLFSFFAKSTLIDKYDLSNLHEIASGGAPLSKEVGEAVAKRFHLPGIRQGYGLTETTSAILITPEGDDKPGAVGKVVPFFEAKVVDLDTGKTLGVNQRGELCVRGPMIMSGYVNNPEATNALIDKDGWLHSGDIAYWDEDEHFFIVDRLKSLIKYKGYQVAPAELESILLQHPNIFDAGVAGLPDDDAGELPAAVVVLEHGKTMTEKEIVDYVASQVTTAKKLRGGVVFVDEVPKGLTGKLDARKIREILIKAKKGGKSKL
Chain of Cytochrome P450 3A4 (P08684 whole entry): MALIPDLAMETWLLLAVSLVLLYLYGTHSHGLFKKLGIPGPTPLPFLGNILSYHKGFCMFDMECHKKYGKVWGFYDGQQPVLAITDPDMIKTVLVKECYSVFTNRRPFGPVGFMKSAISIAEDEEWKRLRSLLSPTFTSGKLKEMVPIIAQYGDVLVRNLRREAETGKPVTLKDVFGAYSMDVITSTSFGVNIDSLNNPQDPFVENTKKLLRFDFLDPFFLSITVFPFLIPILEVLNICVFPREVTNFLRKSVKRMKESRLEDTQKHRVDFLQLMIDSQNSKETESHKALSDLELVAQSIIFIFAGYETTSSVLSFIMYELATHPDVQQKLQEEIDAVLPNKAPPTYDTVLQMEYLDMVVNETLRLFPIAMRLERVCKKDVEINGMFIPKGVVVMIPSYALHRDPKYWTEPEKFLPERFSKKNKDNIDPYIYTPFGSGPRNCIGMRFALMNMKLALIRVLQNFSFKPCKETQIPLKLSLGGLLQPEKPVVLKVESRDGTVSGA
T4 sequence (P11940 whole entry, the tested form may be a part): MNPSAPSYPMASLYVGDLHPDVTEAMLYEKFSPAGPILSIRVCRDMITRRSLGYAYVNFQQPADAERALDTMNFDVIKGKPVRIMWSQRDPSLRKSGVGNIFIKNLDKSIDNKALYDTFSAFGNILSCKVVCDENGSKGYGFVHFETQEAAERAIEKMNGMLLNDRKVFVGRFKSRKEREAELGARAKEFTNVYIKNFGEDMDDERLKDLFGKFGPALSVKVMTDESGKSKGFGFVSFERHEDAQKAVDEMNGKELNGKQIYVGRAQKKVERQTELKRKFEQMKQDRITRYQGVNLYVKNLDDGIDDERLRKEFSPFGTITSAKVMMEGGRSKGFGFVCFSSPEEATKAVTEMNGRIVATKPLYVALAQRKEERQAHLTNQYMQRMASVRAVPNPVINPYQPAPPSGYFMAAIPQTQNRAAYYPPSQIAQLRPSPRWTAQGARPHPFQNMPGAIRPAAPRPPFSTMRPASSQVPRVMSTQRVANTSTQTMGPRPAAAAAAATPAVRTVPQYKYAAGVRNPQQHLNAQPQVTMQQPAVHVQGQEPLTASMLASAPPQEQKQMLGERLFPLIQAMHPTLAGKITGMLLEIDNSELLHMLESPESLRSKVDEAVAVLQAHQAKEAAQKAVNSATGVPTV
Chain of Induced myeloid leukemia cell differentiation protein Mcl-1 (Q07820 whole entry): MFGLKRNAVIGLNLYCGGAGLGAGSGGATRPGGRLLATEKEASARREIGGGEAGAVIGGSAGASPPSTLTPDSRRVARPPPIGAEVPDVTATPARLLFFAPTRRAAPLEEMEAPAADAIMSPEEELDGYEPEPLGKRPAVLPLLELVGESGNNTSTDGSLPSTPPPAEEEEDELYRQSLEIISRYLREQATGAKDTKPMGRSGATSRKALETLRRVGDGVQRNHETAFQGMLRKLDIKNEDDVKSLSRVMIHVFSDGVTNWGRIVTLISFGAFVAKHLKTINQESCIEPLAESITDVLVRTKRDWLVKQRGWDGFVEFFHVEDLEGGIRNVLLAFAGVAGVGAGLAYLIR
Chain of DNA dC->dU-editing enzyme APOBEC-3G (Q9HC16 whole entry): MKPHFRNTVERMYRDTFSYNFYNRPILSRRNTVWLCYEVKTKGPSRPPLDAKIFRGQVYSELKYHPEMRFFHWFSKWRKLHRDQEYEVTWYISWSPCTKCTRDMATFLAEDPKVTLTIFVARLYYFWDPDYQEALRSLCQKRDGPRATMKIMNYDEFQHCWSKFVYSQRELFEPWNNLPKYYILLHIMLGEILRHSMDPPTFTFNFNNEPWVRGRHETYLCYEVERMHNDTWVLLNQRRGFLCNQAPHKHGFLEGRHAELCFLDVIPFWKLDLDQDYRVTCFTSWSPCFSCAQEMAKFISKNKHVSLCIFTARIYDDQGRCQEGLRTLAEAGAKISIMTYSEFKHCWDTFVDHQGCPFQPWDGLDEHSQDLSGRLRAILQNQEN
Chain of Estrogen receptor beta (Q92731 whole entry): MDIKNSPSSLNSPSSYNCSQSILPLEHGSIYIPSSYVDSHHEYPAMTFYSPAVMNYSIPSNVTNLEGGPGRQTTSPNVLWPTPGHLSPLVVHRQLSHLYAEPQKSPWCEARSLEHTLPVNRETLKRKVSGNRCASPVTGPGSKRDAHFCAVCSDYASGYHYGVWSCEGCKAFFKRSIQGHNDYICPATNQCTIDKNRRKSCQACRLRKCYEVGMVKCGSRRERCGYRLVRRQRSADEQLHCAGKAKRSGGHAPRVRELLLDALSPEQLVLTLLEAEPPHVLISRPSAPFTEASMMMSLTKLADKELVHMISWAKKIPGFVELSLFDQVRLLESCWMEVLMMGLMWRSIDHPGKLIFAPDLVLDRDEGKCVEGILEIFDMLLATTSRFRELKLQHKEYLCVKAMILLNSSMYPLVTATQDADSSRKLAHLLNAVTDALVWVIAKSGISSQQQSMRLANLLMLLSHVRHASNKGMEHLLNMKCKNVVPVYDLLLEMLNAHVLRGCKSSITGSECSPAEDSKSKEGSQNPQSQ
Chain of Genome polyprotein (P29990 2492-3391 limits assumed): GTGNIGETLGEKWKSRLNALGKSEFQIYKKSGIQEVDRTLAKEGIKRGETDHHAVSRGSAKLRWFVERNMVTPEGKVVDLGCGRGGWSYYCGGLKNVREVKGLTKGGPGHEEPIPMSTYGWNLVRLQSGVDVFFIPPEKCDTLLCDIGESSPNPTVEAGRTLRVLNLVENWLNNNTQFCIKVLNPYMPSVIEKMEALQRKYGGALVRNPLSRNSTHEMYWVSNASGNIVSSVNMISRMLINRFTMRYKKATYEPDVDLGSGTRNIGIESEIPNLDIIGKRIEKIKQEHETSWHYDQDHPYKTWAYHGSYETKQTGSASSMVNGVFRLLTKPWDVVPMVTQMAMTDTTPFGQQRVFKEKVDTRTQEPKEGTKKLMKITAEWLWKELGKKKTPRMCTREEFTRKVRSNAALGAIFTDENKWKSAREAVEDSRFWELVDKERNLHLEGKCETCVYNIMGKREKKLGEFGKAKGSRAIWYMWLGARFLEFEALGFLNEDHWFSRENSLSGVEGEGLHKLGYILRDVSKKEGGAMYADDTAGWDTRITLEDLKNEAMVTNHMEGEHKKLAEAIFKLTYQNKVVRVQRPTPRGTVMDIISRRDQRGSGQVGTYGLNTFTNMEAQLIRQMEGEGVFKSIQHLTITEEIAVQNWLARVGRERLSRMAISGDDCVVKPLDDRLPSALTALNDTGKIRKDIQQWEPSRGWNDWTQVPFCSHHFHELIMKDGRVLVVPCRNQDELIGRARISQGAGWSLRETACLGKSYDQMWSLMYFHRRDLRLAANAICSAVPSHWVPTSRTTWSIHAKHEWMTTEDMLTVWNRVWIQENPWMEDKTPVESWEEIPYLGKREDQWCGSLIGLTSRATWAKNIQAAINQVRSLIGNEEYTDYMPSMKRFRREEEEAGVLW

In the case of `CCCc1nc2c(C)cc(-c3nc4ccccc4n3C)cc2n1Cc1ccc(-c2ccccc2C(=O)O)cc1`, the IC50 [1] is reported as > 80 µM (inactive).
With `O=C(O)COc1ccc(-c2nccc(-c3ccccn3)n2)cc1` the IC50 [1] was > 80 µM (inactive).
In the case of `O=C(NCCO)c1ccc2nc(-c3ccco3)c(-c3ccco3)nc2c1`, the EC50 [2] is reported as > 300 µM (not active), the EC50 [3] is reported as 17.5 µM (active) and the IC50 (Estrogen receptor) is reported as > 50 µM (not active). The IC50 (Estrogen receptor beta) was 11.4 µM (not active), the IC50 [4] was < 0.4 µM (active) and the IC50 (Genome polyprotein) was 67.7 µM (active). The IC50 [5] was > 66 µM (inactive) and the IC50 [6] was > 66 µM (inactive).
For `Cc1cccc(C(=O)N2CCN(C(=O)c3cccc(C)c3)C(C)C2)c1` (centres undefined), the EC50 [7] was 10.6 µM (active) and the EC50 (HT-1080) was > 50 µM (not active).
In the case of `Brc1ccccc1-c1nc(-c2ccccc2)no1`, the EC50 [7] is reported as 5.42 µM (active) and the EC50 (HT-1080) is reported as > 50 µM (not active).
In the case of `CCCC(C)c1nnc(NC(=O)CCS(=O)(=O)c2ccccc2)s1` (centres undefined), the IC50 [8] is reported as 32.2 µM (active).
In the case of `COc1cccc(C2C(C)CCC3C(=O)N(C)C(C(C)C)C(=O)N32)c1` (centres undefined), the AC50 (Cytochrome P450 3A4) is reported as 2 µM (inconclusive).
With `COC(=O)C1OC(=O)C2O[C@@]23[C@]2(C)C(OC(C)=O)CC4C(C)(C)C(=O)CC[C@]4(C)C2CC[C@@]13C` (some centres undefined) the AC50 (Cytochrome P450 3A4) was 39.8 µM (inconclusive).
For `CC(C)CCNC(=O)CCCOc1cc(=O)n(C)c2ccccc12`, the IC50 [1] was > 80 µM (inactive).
In the case of `CC1(C)CN=C(Nc2nc3ccccc3s2)S1`, the EC50 [9] is reported as 15.3 µM (active), the CC50 [10] is reported as > 40 µM (active) and the EC50 (Streptokinase A) is reported as > 150 µM (not active). For the same molecule, the EC50 (Streptococcus) was > 150 µM (not active).
In the case of `CC(C)(C)C(=O)N1CCc2cc(-c3csc(N)n3)ccc21`, the EC50 [7] is reported as 9.92 µM (active) and the EC50 (HT-1080) is reported as > 50 µM (not active).
For `Cc1nn(Cc2ccc(Cl)cc2)c(C)c1NC(=O)CSc1nc2c(c(C(F)(F)F)n1)CCc1ccccc1-2`, the CC50 [10] was 29 µM (active), the EC50 [11] was 1.72 µM (active) and the EC50 [12] was 12.8 µM (active). For the same molecule, the EC50 [13] was > 60 µM (not active) and the EC50 [14] was 14 µM (active).
For `O=C(CN(Cc1ccco1)C(=O)c1cccc(Cl)c1)Nc1c(Cl)cc(Cl)cc1Cl`, the CC50 [10] was 24 µM (active) and the AC50 (Cytochrome P450 1A2) was 12.6 µM (inconclusive).
In the case of `CC(C)CC(C)Nc1ccc(Nc2ccccc2)cc1` (centres undefined), the AC50 (Cytochrome P450 3A4) is reported as 25.1 µM (inconclusive).
For `CC(C)(C)c1ccc(OCC(O)CSc2nnc[nH]2)cc1` (centres undefined), the EC50 [7] was 1.29 µM (active).
With `CC(=O)OCC1=C(C(=O)O)N2C(=O)C(NC(=O)Cc3cccs3)C2SC1` (centres undefined) the AC50 (Cytochrome P450 3A4) was 31.6 µM (inconclusive).
